Where two headings read alike, the source gives them in different places.
How the values were obtained:
MDA-MB-231 cells [1] = assay: MTT cell proliferation assay in MDA-MB-231 cells (parental, Sc, Si α5, Si α9); type: cell-based, human
Description: A) Detection of nAChR subunits by reverse transcription-polymerase chain reaction (RT-PCR) in normal and cancerous human breast cell lines. MCF-7, MDA-MB-231, AU-565, MDA-MB-453, and BT-483 are transformed human breast cancer cells; MCF-10A and HBL-100 are considered normal human breast cells. The expression profiles of nAChR subunits in human SAEC (small airway epithelial), NHBE (normal human bronchial epithelial), and H157 (lung cancer) cells were also examined as described previously (West K A, Brognard J, Clark A S, et al. J Clin Invest 2003; 111(1):81-90). B) Relative mRNA expression of different nAChR subunits in normal and tumor human breast tissues isolated from 50 breast cancer patients. The cDNA was used for RT-PCR analysis and the experiment was repeated twice. Percent of occurrence is shown. C) Expression of the α5 and α9 nAChR subunits in stable MDA-MB-231 cell lines that express α9-nAChR (Si α9), α5-nAChR (Si α5), or scrambled (Sc) short interfering RNAs (siRNAs). […] Levels of α5 and α9 mRNAs were determined by RT-PCR, and levels of the α5 and α9 proteins by western blotting (WB). In each case, glyceraldehyde 3-phosphate dehydrogenase (GADPH) expression served as a control. D) Cell proliferation in Si α5, Sc, and parental MDA-MB-231 cells treated with dimethylsulfoxide DMSO vs nicotine, and in cells treated with DMSO vs the nicotine metabolite, 4-(methylnitrosamino)-1-(3-pyridyl)-1-butanone (NNK). Parental MDA-MB-231 cells (231) and 231 cells stably transformed the Si α5-, Sc-, or Si α9-siRNAs were treated with either nicotine (10 μM), NNK (1 μM), or vehicle alone in the absence of continued G418 selection afterwards. […] Cell proliferation was measured by the 3-(4,5-dimethylthiazol-2-yl)-2,5-diphenyltetrazolium (MTT) assay, in which a greater number of cells was reflected by an increased OD540 nm at the indicated time points. The experiment was repeated four times with duplicate samples. Data points represent the mean; error bars indicate 95% confidence intervals. The data were analyzed by nonparametric two-sided tests (Kruskal-Wallis and Mann-Whitney tests). […] E) Confocal microscopy of α9-nAChR expression in human breast cancer (MCF-7) cells. Immunofluorescence with a fluorescein isothiocyate-conjugated secondary antibody was used to detect the α9-nAChR, whereas a rhodamine-conjugated fluorescent antibody was used for caveolin-1 labeling. Localization of α9-nAChR (left, green), the membrane protein caveolin-1 (middle, red), and the merged image (right, yellow) are shown. Scale bar=25 μm. F) Dose-dependent binding of [^3H]-nicotine to the endogenous α9-nAChR receptor in human breast cancer MDA-MB-231 cells (left panel) and time-dependent [^3H]-nicotine binding in parental MDA-MB-231 cells (231), or in 231 cells stably transformed with α9-nAChR siRNA (Si α9) or scrambled control (Sc) siRNA (right panel). The experiment was repeated four times with duplicate samples. Data points represent the mean; error bars indicate the 95% confidence intervals. […] G) Analysis of α9-nicotinic acetylcholine receptor (α9-nAChR) expression in human breast carcinoma tissues. Determination of α9-nAChR mRNA levels using reverse transcription-polymerase chain reaction (RT-PCR). […] PCR was performed for 30 cycles.
(§1) Cell growth, proliferation, and viability were determined using the 3-(4,5-dimethylthiazol-2-yl)-2,5-diphenyltetrazolium (MTT) assay (Chou Y H, Ho Y S, Wu C C, et al. Food Chem Toxicol 2007; 45(8):1356-67.) Stock solutions of 10 mM nicotine and NNK (Chemsyn, Lenexa, Kans.) were prepared in dimethyl sulfoxide (DMSO). This assay was repeated four times with duplicate samples.

MCF-10A (DOX) cells [2] = assay: MTT cell proliferation assay in MCF-10A (DOX) cells; type: cell-based, human; conditions: nicotine 10 μM, NNK 1 μM; DOX+ vs DOX− cells
Method: Data points represent the mean; error bars indicate 95% confidence intervals. […] The experiment was repeated four times with duplicate samples. […] After transplantation, mice bearing tumors were treated with DOX (0.5 mg/mL) via drinking water for 14 days. After that, all mice bearing tumors (200 mm^3) were divided into either α9-nAChR mRNA expressing (DOX−) or non-expressing (DOX+) groups in the presence or absence of nicotine (10 mg/mL) in their drinking water (n=5, per group). […] Error bars represent 95% confidence intervals.
as §1

MCF-10A (DOX) cells [3] = assay: Long-term transformation of MCF-10A (DOX) cells, soft agar colony formation; type: cell-based, human; conditions: soft agar 21 days
Description: Anchorage-independent growth of α9-nAChR overexpressing (MCF-10A-Nic (DOX) and MCF-10A-NNK (DOX)) and siRNA-expressing MDA MB-231 Si α5, Si α9, and Sc cells were examined in soft agar assays. The base layer consisted of 0.9% low-melting point SeaPlaque agarose (Sigma, St. Louis, Mo.) in complete MCF-10A culture medium. Soft agar was composed of 0.4% SeaPlaque agarose in complete DMEM and F12 culture medium was mixed with 1×10^4 cells and plated on top of the base layer in 60-mm-diameter culture dishes. […] Soft agar cultures were maintained at 37° C. for an additional 21 days and observed for the appearance of colonies with a Leica DMI 4000B Microscope Imaging System (Leica Microsystems, Wetzlar, Germany). The assay was repeated four times with duplicate samples.

MDA-MB-231 cells [4] = assay: Soft agar growth assay of MDA-MB-231 cells; type: cell-based, human; conditions: parental MDA-MB-231 cells; nicotine 10 μM or NNK 1 μM
Description: (§2) The experiment was repeated four times with duplicate samples.
The assay was repeated four times with duplicate samples.

[5] = biological target: T1, endogenous α9-nAChR receptor in human breast cancer MDA-MB-231 cells (Homo sapiens, UniProt Q9UGM1); assay: [^3H]-nicotine equilibrium binding in MDA-MB-231 cells
T1 construct: endogenous α9-nAChR receptor in human breast cancer MDA-MB-231 cells; endogenous in cells; host or cells: MDA-MB-231 (parental, Sc and Si α9 clones)
Method: L-(−)-[N-methyl-^3H]-nicotine (71-75 Ci/mmol) was purchased from Dupont/NEN Research Products (Boston, Mass.), and free base nicotine (99% pure) was purchased from the Eastman Kodak Co. (Rochester, N.Y.). To study the uptake of [^3H]-nicotine in MDA-MB-231 cell monolayers (2×10^6 cells per well), cells were rinsed three times with a buffer containing 140 mM NaCl, 5.4 mM KCl, 1.8 mM CaCl2, 0.8 mM MgSO4, 5 mM glucose, and 25 mM Hepes (pH 7.4). Saturation binding studies were conducted for 2 hours at 37° C. in six-well plates, and used at least eight different concentrations of [^3H]-nicotine ranging from 1 to 15 nM. Time-dependent association kinetic studies in MDA-MB-231, Si α9, Sc cells were conducted using a single concentration of [^3H]-nicotine (7 nM) for treatments of 5, 10, 15, 30, 60 and 90 minutes. For determination of nonspecific binding, 10 μM unlabeled nicotine was pre-added to medium, after which cells were washed three times with ice-cold buffer and then exposed to [^3H]-nicotine. [^3H]-nicotine uptake was stopped by aspiration of the uptake medium and washing the wells three times with ice-cold buffer. The cells were lysed in 1 mL of 0.5% Triton X-100, and aliquots of the cell lysates were transferred to scintillation vials to determine the incorporated radioactivity by scintillation counting. The assay was repeated four times with duplicate samples.

[6] = system: MCF-10A-Nic (DOX) xenografts; conditions: after 7 weeks; for tumor volume: with nicotine 10 mg/mL drinking water
Method: BALB/c-nu/nu mice (female, 4 weeks old, n=5 per group) purchased from National Science Council Animal Center, Taipei, were injected subcutaneously with MCF-10A-Nic (DOX) and vector control (5×10^6) cells. After transplantation, mice bearing tumors were treated with DOX (0.5 mg/mL) via drinking water for 14 days. After that, all mice bearing tumors (200 mm^3) were divided into either α9-nAChR mRNA expressing (DOX−) or non-induced (DOX+) groups, the latter of which could express the α9-nAChR mRNA at basal level. The mice were simultaneously treated with or without nicotine (10 mg/mL) in their drinking water for an additional 6 weeks. The xenografts were weighed and either snap-frozen in dry ice and stored at −80° C. for RNA and protein analysis or formalin-fixed and paraffin-embedded for immunohistochemical observation.
Examination was conducted as to whether induction of α9-nAChR in the presence or absence of nicotine stimulation in vivo would effectively promote tumor growth (FIG. 6). BALB/c-nu/nu mice (female, 4 weeks old) were injected subcutaneously with transformed MCF-10A-Nic (DOX) cells (5×10^6). After that, all mice bearing tumors (200 mm^3) were divided into either α9-nAChR mRNA expressing (DOX−) or non-expressing (DOX+) groups in the presence or absence of nicotine (10 mg/mL) in their drinking water (n=5, per group).

[7] = system: MDA-MB-231 tumor xenografts; assay: MDA-MB-231 α9-nAChR siRNA-expressing xenografts in NOD-SCID mice; type: in vivo, mouse
Description: as §2

[8] = Sc cells, day 11, nicotine 10 μM, NNK 1 μM
[9] = Si α5 cells, day 11, nicotine 10 μM, NNK 1 μM
[10] = nicotine-treated (10 mg/mL drinking water) mice with parental MDA-MB-231 tumors

T1 sequence (Q9UGM1 26-479 limits assumed): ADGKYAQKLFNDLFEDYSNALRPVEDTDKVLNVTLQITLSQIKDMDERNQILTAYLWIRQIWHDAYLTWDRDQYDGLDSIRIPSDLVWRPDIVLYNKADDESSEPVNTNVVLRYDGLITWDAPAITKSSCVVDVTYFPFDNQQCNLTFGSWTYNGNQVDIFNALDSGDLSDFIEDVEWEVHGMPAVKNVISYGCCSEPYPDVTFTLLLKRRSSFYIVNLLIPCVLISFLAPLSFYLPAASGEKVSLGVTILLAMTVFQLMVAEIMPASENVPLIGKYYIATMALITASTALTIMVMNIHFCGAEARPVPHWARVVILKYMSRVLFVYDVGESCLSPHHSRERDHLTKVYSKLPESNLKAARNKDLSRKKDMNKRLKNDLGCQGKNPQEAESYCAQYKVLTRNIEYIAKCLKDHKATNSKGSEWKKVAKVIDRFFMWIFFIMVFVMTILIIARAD

Row | SMILES | difference in mean OD540 nm vs control (DMSO) (MDA-MB-231 cells [1]; [8]) | mean OD540 nm (MDA-MB-231 cells [1]; [8]) | difference in mean OD540 nm vs control (DMSO) (MDA-MB-231 cells [1]; [9]) | mean OD540 nm (MDA-MB-231 cells [1]; [9]) | induction of cell proliferation (MCF-10A (DOX) cells [2]) | colonies formed, DOX− compared with DOX+ cells (MCF-10A (DOX) cells [3]; NNK 1 μM for 60 days) | no. of colonies in parental cells (MDA-MB-231 cells [4]) [colonies] | time at which maximum binding activity is attained ([5]; MDA-MB-231 cells, [^3H]-nicotine 7 nM) [min] | Kd ([5]; MDA-MB-231 cells, saturation binding 2 hours at 37° C., read-out: dissociation constant (Kd) of [^3H]-nicotine binding) [nM] | [^3H]-nicotine bound by parental cells ([5]; parental MDA-MB-231 cells) [DPM] | difference in mean OD540 nm vs control (DMSO) (MDA-MB-231 cells [1]) | mean OD540 nm (MDA-MB-231 cells [1]) | difference in tumor volume, with vs without nicotine ([6]; +DOX) [mm^3] | tumor volume ([6]; +DOX) [mm^3] | difference in tumor volume, with vs without nicotine ([6]; −DOX) [mm^3] | tumor volume ([6]; −DOX) [mm^3] | colonies formed in soft agar (MCF-10A (DOX) cells [3]; MCF-10A (DOX−) cells, nicotine 10 μM for 60 days) | tumor weight in nicotine-fed mice ([7]; mice injected with MDA-MB-231 (231) or Sc cells (FIG. 3D)) | tumor volume at 6 weeks treatment [7, 10] [mm^3] | tumor weight at 6 weeks [7, 10] [g]
1 | CN(CCCC(=O)c1cccnc1)N=O [NNK, 4-(methylnitrosamino)-1-(3-pyridyl)-1-butanone] | 1.00 | 1.77 | 0.99 | 1.78 | induced cell proliferation was observed only in the MCF-10A (DOX+) cell line | More colonies | 406 |  |  |  |  |  |  |  |  |  |  |  |  | 
2 | CN1CCCC1c1cccnc1 [[^3H]-nicotine, L-(−)-[N-methyl-^3H]-nicotine] |  |  |  |  |  |  |  | 60 | 3 | 489.7 |  |  |  |  |  |  |  |  |  | 
3 | CN1CCCC1c1cccnc1 (stereo not shown) [nicotine] |  |  |  |  | induced cell proliferation was observed only in the MCF-10A (DOX+) cell line |  | 341 |  |  |  | 0.58 | 1.35 | 235.4 | 501.6 | 277.4 | 898.6 | six | heavier | 2993.2 | 4.38
